Data published in patent US10233182B2, “Substituted spirocyclic inhibitors of autotaxin” (X-Rx, Inc., priority 2014, dated 2019).
Structures can show the parent of a compound that is named as a salt.

target: Autotaxin (Homo sapiens (Human), UniProt Q13822); assay: Autotaxin LPC Cascade Assay; format: biochemical; conditions: Autotaxin 5 nM, LPC 100 μM, choline oxidase/HRP/Ampliflu Red fluorescence read-out, 2% DMSO, RT; read-out: IC50 ATX Activity
Procedure, shortened: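 Choline liberated from LPC by autotaxin during 1 h, after a 10-min RT compound preincubation, was converted through choline oxidase/HRP to a fluorescent Ampliflu Red product.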

| SMILES | IC50 [µM] |
| --- | --- |
| CC(C)[C@@H](NC(=O)c1cc(C(F)(F)F)ccc1F)C(=O)N1CCC2(CC1)C(=O)N(C)CN2c1ccc(C(=O)O)cc1 [Example 149, (R)-4-(8-(2-(2-Fluoro-5-(trifluoromethyl)benzamido)-3-methylbutanoyl)-3-methyl-4-oxo-1,3,8-triazaspiro[4.5]decan-1-yl)benzoic Acid] | < 0.5 |
| Cc1cccc(C(=O)N[C@@H](C(=O)N2CCC3(CC2)C(=O)N(C)CN3c2ccc(C(=O)O)cc2)C(C)C)c1F [Example 150, (R)-4-(8-(2-(2-Fluoro-3-methylbenzamido)-3-methylbutanoyl)-3-methyl-4-oxo-1,3,8-triazaspiro[4.5]decan-1-yl)benzoic Acid] | < 0.5 |
| COc1cc(N2CN(C)C(=O)C23CCN(C(=O)[C@H](NC(=O)c2cc(C(F)(F)F)ccc2F)C(C)C)CC3)ccc1C(=O)O [Example 151] | < 0.5 |
| CCc1ccc(F)c(C(=O)N[C@@H](C(=O)N2CCC3(CC2)C(=O)N(C)CN3c2ccc(C(=O)O)cc2)C(C)C)c1 [Example 152, (R)-4-(8-(2-(5-Ethyl-2-fluorobenzamido)-3-methylbutanoyl)-3-methyl-4-oxo-1,3,8-triazaspiro[4.5]decan-1-yl)benzoic Acid] | < 0.5 |
| CC(C)[C@@H](NC(=O)c1cc(C2CC2)ccc1F)C(=O)N1CCC2(CC1)C(=O)N(C)CN2c1ccc(C(=O)O)cc1 [Example 153, (R)-4-(8-(2-(5-Cyclopropyl-2-fluorobenzamido)-3-methylbutanoyl)-3-methyl-4-oxo-1,3,8-triazaspiro[4.5]decan-1-yl)benzoic Acid] | < 0.5 |
| CC(C)[C@@H](NC(=O)c1cc(C(F)(F)F)ccc1F)C(=O)N1CCC2(CC1)C(=O)N(C)CN2c1ccc(C(=O)O)c(Cl)c1 [Example 154, (R)-2-Chloro-4-(8-(2-(2-fluoro-5-(trifluoromethyl)benzamido)-3-methylbutanoyl)-3-methyl-4-oxo-1,3,8-triazaspiro[4.5]decan-1-yl)benzoic Acid] | < 0.5 |
| CC(C)[C@@H](NC(=O)c1cc(C(F)(F)F)ccc1F)C(=O)N1CCC2(CC1)C(=O)N(CC1CC1)CN2c1ccc(C(=O)O)cc1 [Example 155, (R)-4-(3-(Cyclopropylmethyl)-8-(2-(2-fluoro-5-(trifluoromethyl)benzamido)-3-methylbutanoyl)-4-oxo-1,3,8-triazaspiro[4.5]decan-1-yl)benzoic Acid] | < 0.5 |
| CN1CN(c2ccc(C(=O)O)cc2)C2(CCN(C(=O)[C@H](NC(=O)c3cc(C(F)(F)F)ccc3F)C3CCCC3)CC2)C1=O [Example 156, (R)-4-(8-(2-Cyclopentyl-2-(2-fluoro-5-(trifluoromethyl)benzamido)acetyl)-3-methyl-4-oxo-1,3,8-triazaspiro[4.5]decan-1-yl)benzoic Acid] | < 0.5 |
| CC(C)[C@@H](NC(=O)c1cc(C(F)(F)F)ccc1F)C(=O)N1CCC2(CC1)C(=O)N(C)CN2c1ccc(C(N)=O)cc1 [Example 157, (R)—N-(1-(1-(4-Carbamoylphenyl)-3-methyl-4-oxo-1,3,8-triazaspiro[4.5]decan-8-yl)-3-methyl-1-oxobutan-2-yl)-2-fluoro-5-(trifluoromethyl)benzamide] | < 0.5 |
| Cc1cc(N2CN(C)C(=O)C23CCN(C(=O)[C@H](NC(=O)c2cc(C(F)(F)F)ccc2F)C(C)C)CC3)ccc1C(=O)O [Example 158, (R)-4-(8-(2-(2-Fluoro-5-(trifluoromethyl)benzamido)-3-methylbutanoyl)-3-methy-4-oxo-1,3,8-triazaspiro[4.5]decan-1-yl)-2-methylbenzoic Acid] | ≥ 1 |
| CN1CN(c2ccc(C(=O)O)cc2)C2(CCN(C(=O)[C@H](NC(=O)c3cc(C(F)(F)F)ccc3F)C(C)(C)C)CC2)C1=O [Example 159] | ≥ 1 |
| CC(C)[C@@H](NC(=O)c1cc(Cl)cc(C(F)(F)F)c1)C(=O)N1CCC2(CC1)C(=O)N(C)CN2c1ccc(C(=O)O)cc1 [Example 160, (R)-4-(8-(2-(3-Chloro-5-(trifluoromethyl)benzamido)-3-methylbutanoyl)-3-methyl-4-oxo-1,3,8-triazaspiro[4.5]decan-1-yl)benzoic Acid] | < 0.5 |
| Cc1ccc(C(F)(F)F)cc1C(=O)N[C@@H](C(=O)N1CCC2(CC1)C(=O)N(C)CN2c1ccc(C(=O)O)cc1)C(C)C [Example 161, (R)-4-(3-Methyl-8-(3-methyl-2-(2-methyl-5-(trifluoromethyl)benzamido)butanoyl)-4-oxo-1,3,8-triazaspiro[4.5]decan-1-yl)benzoic Acid] | 0.5 to 1 |
| CC(C)[C@@H](NC(=O)c1cc(OC(F)(F)F)ccc1F)C(=O)N1CCC2(CC1)C(=O)N(C)CN2c1ccc(C(=O)O)cc1 [Example 162, (R)-4-(8-(2-(2-Fluoro-5-(trifluoromethoxy)benzamido)-3-methylbutanoyl)-3-methyl-4-oxo-1,3,8-triazaspiro[4.5]decan-1-yl)benzoic Acid] | < 0.5 |
| COc1ccc(F)c(C(=O)N[C@@H](C(=O)N2CCC3(CC2)C(=O)N(C)CN3c2ccc(C(=O)O)cc2)C(C)C)c1 [Example 163, (R)-4-(8-(2-(2-Fluoro-5-methoxybenzamido)-3-methylbutanoyl)-3-methyl-4-oxo-1,3,8-triazaspiro[4.5]decan-1-yl)benzoic Acid] | < 0.5 |
| CC(C)[C@@H](NC(=O)C12CC3CC(CC(C3)C1)C2)C(=O)N1CCC2(CC1)C(=O)N(C)CN2c1ccc(C(=O)O)cc1 [Example 164, (R)-4-(8-(2-(1-Admantanecarboxamido)-3-methylbutanoyl)-3-methyl-4-oxo-1,3,8-triazaspiro[4.5]decan-1-yl)benzoic Acid] | ≥ 1 |
| CC(C)[C@@H](NC(=O)c1cc(OC(F)F)ccc1F)C(=O)N1CCC2(CC1)C(=O)N(C)CN2c1ccc(C(=O)O)cc1 [Example 165, (R)-4-(8-(2-(5-(Difluoromethoxy)-2-fluorobenzamido)-3-methylbutanoyl)-3-methyl-4-oxo-1,3,8-triazaspiro[4.5]decan-1-yl)benzoic Acid] | < 0.5 |
| CC(C)[C@@H](NC(=O)c1cc(OC(F)F)ccc1F)C(=O)N1CCC2(CC1)C(=O)N(C)C(=O)N2c1ccc(C(=O)O)cc1 [Example 166, (R)-4-(8-(2-(5-(Difluoromethoxy)-2-fluorobenzamido)-3-methylbutanoyl)-3-methyl-2,4-dioxo-1,3,8-triazaspiro[4.5]decan-1-yl)benzoic Acid] | < 0.5 |
| CC(C)[C@@H](NC(=O)c1cc(OC(F)(F)F)ccc1F)C(=O)N1CCC2(CC1)C(=O)N(C)C(=O)N2c1ccc(C(=O)O)cc1 [Example 167, (R)-4-(8-(2-(2-Fluoro-5-(trifluoromethoxy)benzamido)-3-methylbutanoyl)-3-methyl-2,4-dioxo-1,3,8-triazaspiro[4.5]decan-1-yl)benzoic Acid] | < 0.5 |
| CCc1ccc(F)c(C(=O)N[C@@H](C(=O)N2CCC3(CC2)C(=O)N(C)CN3c2ccc(OCC(=O)O)cc2)C(C)C)c1 [Example 168, (R)-2-(4-(8-(2-(5-Ethyl-2-fluorobenzamido)-3-methylbutanoyl)-3-methyl-4-oxo-1,3,8-triazaspiro[4.5]decan-1-yl)phenoxy)acetic Acid] | < 0.5 |
| CCc1ccc(F)c(C(=O)N[C@@H](C(=O)N2CCC3(CC2)C(=O)N(C)CN3c2ccc(OCC(N)=O)cc2)C(C)C)c1 [Example 169, (R)—N-(1-(1-(4-(2-Amino-2-oxoethoxy)phenyl)-3-methyl-4-oxo-1,3,8-triazaspiro[4.5]decan-8-yl)-3-methyl-1-oxobutan-2-yl)-5-ethyl-2-fluorobenzamide] | < 0.5 |
| CCc1ccc(F)c(C(=O)N[C@@H](C(=O)N2CCC3(CC2)C(=O)N(C)CN3c2ccc(OCC#N)cc2)C(C)C)c1 [Example 170, (R)—N-(1-(1-(4-(Cyanomethoxy)phenyl)-3-methyl-4-oxo-1,3,8-triazaspiro[4.5]decan-8-yl)-3-methyl-1-oxobutan-2-yl)-5-ethyl-2-fluorobenzamide] | < 0.5 |
| CC(C)[C@@H](NC(=O)c1cc(C(F)(F)F)ccc1F)C(=O)N1CCC2(CC1)C(=O)N(C)CN2c1ccc(OCCN(C)C)cc1 [Example 171, (R)—N-(1-(1-(4-(2-(Dimethylamino)ethoxy)phenyl)-3-methyl-4-oxo-1,3,8-triazaspiro[4.5]decan-8-yl)-3-methyl-1-oxobutan-2-yl)-2-fluoro-5-(trifluoromethyl)benzamide trifluoroacetic Acid Salt] | < 0.5 |
| CCc1ccc(F)c(C(=O)N[C@@H](C(=O)N2CCC3(CC2)C(=O)N(C)CN3c2ccc(NC(C)=O)cc2)C(C)C)c1 [Example 172, (R)—N-(1-(1-(4-Acetamidophenyl)-3-methyl-4-oxo-1,3,8-triazaspiro[4.5]decan-8-yl)-3-methyl-1-oxobutan-2-yl)-5-ethyl-2-fluorobenzamide] | < 0.5 |
| CCc1ccc(F)c(C(=O)N[C@@H](C(=O)N2CCC3(CC2)C(=O)N(C)CN3c2ccc(NS(C)(=O)=O)cc2)C(C)C)c1 [Example 173, (R)-5-Ethyl-2-fluoro-N-(3-methyl-1-(3-methyl-1-(4-(methylsulfonamido)phenyl)-4-oxo-1,3,8-triazaspiro[4.5]decan-8-yl)-1-oxobutan-2-yl)benzamide] | < 0.5 |
| CC(C)[C@@H](NC(=O)c1cc(C(F)(F)F)ccc1F)C(=O)N1CCC2(CC1)C(=O)N(C)CN2c1ccc(NS(C)(=O)=O)cc1 [Example 174, (R)-2-Fluoro-N-(3-methyl-1-(3-methyl-1-(4-(methylsulfonamido)phenyl)-4-oxo-1,3,8-triazaspiro[4.5]decan-8-yl)-1-oxobutan-2-yl)-5-(trifluoromethyl)benzamide] | < 0.5 |
| COC(=O)Nc1ccc(N2CN(C)C(=O)C23CCN(C(=O)[C@H](NC(=O)c2cc(C(F)(F)F)ccc2F)C(C)C)CC3)cc1 [Example 175, (R)-Methyl-4-(8-(2-(2-fluoro-5-(trifluoromethyl)benzamido)-3-methylbutanoyl)-3-methyl-4-oxo-1,3,8-triazaspiro[4.5]decan-1-yl)phenylcarbamate] | < 0.5 |
| Cc1cc(F)cc(C(=O)N[C@@H](C(=O)N2CCC3(CC2)C(=O)N(CC(=O)O)CN3c2ccccc2)C(C)C)c1 [Example 176, (R)-2-(8-(2-(3-Fluoro-5-methylbenzamido)-3-methylbutanoyl)-4-oxo-1-phenyl-1,3,8-triazaspiro[4.5]decan-3-yl)acetic Acid] | 0.5 to 1 |
